We go through 24 compounds from US10519140B2, “Indolin-2-one derivatives” (Hoffmann-La Roche Inc., priority 2015, dated 2019).

The term IC50 denotes the concentration that gives 50% inhibition.

This experiment concerns the target T1, mouse ENT-1 transporter (Mus musculus, UniProt Q9JIM1).
T1 construct: expressed in transfected cells
T1 sequence (Q9JIM1 1-460): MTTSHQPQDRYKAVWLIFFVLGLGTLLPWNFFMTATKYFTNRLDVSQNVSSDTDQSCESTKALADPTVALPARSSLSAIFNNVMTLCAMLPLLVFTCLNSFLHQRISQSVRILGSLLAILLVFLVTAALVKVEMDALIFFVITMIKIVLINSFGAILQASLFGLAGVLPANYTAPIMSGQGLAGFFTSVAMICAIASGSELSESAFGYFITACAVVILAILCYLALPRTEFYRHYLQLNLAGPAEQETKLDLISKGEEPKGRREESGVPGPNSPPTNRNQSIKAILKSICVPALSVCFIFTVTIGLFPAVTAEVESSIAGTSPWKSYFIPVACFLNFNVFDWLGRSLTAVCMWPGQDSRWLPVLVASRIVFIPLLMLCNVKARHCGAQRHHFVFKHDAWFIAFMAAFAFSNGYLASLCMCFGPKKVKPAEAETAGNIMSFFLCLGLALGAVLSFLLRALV
The experiment is described as follows: Adenosine transport activity (ENT1, [3H]-adenosine uptake inhibition). To be noted: stable cells expressing mouse ENT-1; [2,8-3H]-adenosine 6 nM, 20 min. It counts as cell-based. How it is done:
To measure adenosine transport activity of ENT-1 mammalian cells, stable cells expressing the mouse ENT-1 transporter were plated on day 1 in 96-well culture plates at the density of 60,000 cells/well, in complete DMEM/F12 medium supplemented with glutamax, 10% FBS and 10 μg/ml puromycin. On day 2, the medium was aspirated and the cells were washed twice with uptake buffer (10 mM Hepes-Tris, pH 7.4 containing 150 mM NaCl, 1 mM CaCl2, 2.5 mM KCl, 2.5 mM MgSO4, 10 mM D-glucose) (UB). For inhibition experiments, cells were then incubated at RT with various concentrations of compounds with 1% DMSO final. Non-specific uptake was defined in the presence of 10 μM S-(4-Nitrobenzyl)-6-thioinosine (NBTI, Sigma Cat #N2255). A solution containing [2,8-^3H]-adenosine 6 nM (40 Ci/mmol, American Radiolabeled chemicals Inc, Cat #ART 0287A) was then immediately added to the wells. The plates were then incubated for 20 min with gentle shaking and the reaction was stopped by aspiration of the mixture and washing (three times) with ice-cold UB. The cells were lysed by the addition of scintillation liquid, shaken 3 hours and the radioactivity in the cells was estimated using a microplates scintillation counter (TopCount NXT, Packard).

`Cc1ncc(-c2ccc3c(c2)N(c2cncc(N4CCC(F)(F)CC4)n2)C(=O)C3(C)C)cn1` [Example 6, 1-(6-(4,4-Difluoropiperidin-1-yl)pyrazin-2-yl)-3,3-dimethyl-6-(2-methylpyrimidin-5-yl)indolin-2-one] registered a 50% inhibitory concentration (IC50) of 32.4 nM. `Cc1ncc(-c2ccc3c(c2)N(c2ccc4c(c2)N(C2COC2)C(=O)C4(C)C)C(=O)C3(C)C)cn1` [Example 59, 3,3,3′,3′-Tetramethyl-6-(2-methylpyrimidin-5-yl)-1′-(oxetan-3-yl)-[1,6′-biindoline]-2,2′-dione] came in with an IC50 of 203 nM. For `Cc1ncc(-c2ccc3c(c2)N(c2cnc4c(n2)[nH]c(=O)n4C)C(=O)C3(C)C)cn1` [Example 35, 5-(3,3-Dimethyl-6-(2-methylpyrimidin-5-yl)-2-oxoindolin-1-yl)-1-methyl-1H-imidazo[4,5-b]pyrazin-2(3H)-one], it took 496 nM to reach half-maximal inhibition (IC50). The result for `Cc1ncc(-c2ccc3c(c2)N(c2cncc(NC4COC4)n2)C(=O)C3(C)C)cn1` [Example 17, 3,3-Dimethyl-6-(2-methylpyrimidin-5-yl)-1-(6-(oxetan-3-ylamino)pyrazin-2-yl)indolin-2-one] reads 244 nM; that for `Cc1ncc(-c2ccc3c(c2)N(c2cncc(N4CCCS4(=O)=O)n2)C(=O)C3(C)C)cn1` [Example 57, 1-(6-(1,1-Dioxidoisothiazolidin-2-yl)pyrazin-2-yl)-3,3-dimethyl-6-(2-methylpyrimidin-5-yl)indolin-2-one], 60.8 nM; that for `Cc1ncc(-c2ccc3c(c2)N(c2ccc4c(c2)N(C)C(=O)C4(C)C)C(=O)C3(C)C)cn1` [Example 41, 1′,3,3,3′,3′-Pentamethyl-6-(2-methylpyrimidin-5-yl)-[1,6′-biindoline]-2,2′-dione], 114 nM.

For `Cc1ncc(-c2ccc3c(c2)N(c2cncc(N4CCOCC4)c2)C(=O)C3(C)C)cn1` [Example 26, 3,3-Dimethyl-6-(2-methylpyrimidin-5-yl)-1-(5-morpholinopyridin-3-yl)indolin-2-one], the half-inhibitory concentration (IC50) was determined as 17.6 nM. The result for `Cc1ncc(-c2ccc3c(c2)N(c2ccc(C)c(N4CCOC4=O)n2)C(=O)C3(C)C)cn1` [Example 32, 3-(6-(3,3-Dimethyl-6-(2-methylpyrimidin-5-yl)-2-oxoindolin-1-yl)-3-methylpyridin-2-yl)oxazolidin-2-one] reads 32.4 nM. `Cc1ncc(-c2ccc3c(c2)N(c2ccc4cc[nH]c4n2)C(=O)C3(C)C)cn1` [Example 58, 3,3-Dimethyl-6-(2-methylpyrimidin-5-yl)-1-(1H-pyrrolo [2,3-b]pyridin-6-yl)indolin-2-one] registered a 50% inhibitory concentration (IC50) of 243 nM. Compound `Cc1ncc(-c2ccc3c(c2)N(c2cncc(N4CCC(O)CC4)n2)C(=O)C3(C)C)cn1` [Example 9, 1-(6-(4-Hydroxypiperidin-1-yl)pyrazin-2-yl)-3,3-dimethyl-6-(2-methylpyrimidin-5-yl)indolin-2-one] registered an IC50 of 21.8 nM. `Cc1ncc(-c2ccc3c(c2)N(c2cncc(N4CCC45COC5)n2)C(=O)C3(C)C)cn1` [Example 14, 1-(6-(6-Oxa-1-azaspiro[3.3]heptan-1-yl)pyrazin-2-yl)-3,3-dimethyl-6-(2-methylpyrimidin-5-yl)indolin-2-one]: the concentration for half-maximal inhibition (IC50) came out at 110 nM. The result for `Cc1ncc(-c2ccc3c(c2)N(c2cc4c(cn2)C(C)(C)C(=O)N4C2CC2)C(=O)C3(C)C)cn1` [Example 40, 1-Cyclopropyl-6-(3,3-dimethyl-6-(2-methylpyrimidin-5-yl)-2-oxoindolin-1-yl)-3,3-dimethyl-1H-pyrrolo [3,2-c]pyridin-2(3H)-one] reads 493 nM; that for `Cc1ncc(-c2ccc3c(c2)N(c2cc4c(cn2)C(C)(C)C(=O)N4)C(=O)C3(C)C)cn1` [Example 43, 6-(3,3-Dimethyl-6-(2-methylpyrimidin-5-yl)-2-oxoindolin-1-yl)-3,3-dimethyl-1H-pyrrolo[3,2-c]pyridin-2(3H)-one], 385 nM; that for `Cc1ncc(-c2ccc3c(c2)N(c2ccc4c(C)nn(C)c4n2)C(=O)C3(C)C)cn1` [Example 61, 1-(1,3-Dimethyl-1H-pyrazolo[3,4-b]pyridin-6-yl)-3,3-dimethyl-6-(2-methylpyrimidin-5-yl)indolin-2-one], 202 nM. Compound `Cc1ncc(-c2ccc3c(c2)N(c2cncc(N)c2)C(=O)C3(C)C)cn1` [Example 25, 1-(5-Aminopyridin-3-yl)-3,3-dimethyl-6-(2-methylpyrimidin-5-yl)indolin-2-one] yielded an IC50 of 466 nM.

The compound `Cc1ncc(-c2ccc3c(c2)N(c2cnc4[nH]c(=O)[nH]c4n2)C(=O)C3(C)C)cn1` [Example 36, 5-(3,3-Dimethyl-6-(2-methylpyrimidin-5-yl)-2-oxoindolin-1-yl)-1H-imidazo[4,5-b]pyrazin-2(3H)-one] showed a half-inhibitory concentration (IC50) of 375 nM.

Turning to `Cc1ncc(-c2ccc3c(c2)N(c2cncc(N)n2)C(=O)C3(C)C)cn1` [Example 2, 1-(6-Aminopyrazin-2-yl)-3,3-dimethyl-6-(2-methylpyrimidin-5-yl)indolin-2-one], the IC50 is 163 nM. Next, `CC(=O)Nc1nc(N2C(=O)C(C)(C)c3ccc(-c4cnc(C)nc4)cc32)ccc1C` [Example 30, N-(6-(3,3-Dimethyl-6-(2-methylpyrimidin-5-yl)-2-oxoindolin-1-yl)-3-methylpyridin-2-yl)acetamide]: 346 nM; `Cc1ncc(-c2ccc3c(c2)N(c2ccc4cnn(C)c4c2)C(=O)C3(C)C)cn1` [Example 60, 3,3-Dimethyl-1-(1-methyl-1H-indazol-6-yl)-6-(2-methylpyrimidin-5-yl)indolin-2-one]: 37.7 nM; `Cc1ncc(-c2ccc3c(c2)N(c2nccc(N4CCOCC4)n2)C(=O)C3(C)C)cn1` [Example 24, 3,3-Dimethyl-6-(2-methylpyrimidin-5-yl)-1-(4-morpholinopyrimidin-2-yl)indolin-2-one]: 321 nM. `Cc1ncc(-c2ccc3c(c2)N(c2cc4c(nn2)N(C2CC2)C(=O)C4(C)C)C(=O)C3(C)C)cn1` [Example 53, 7-Cyclopropyl-3-(3,3-dimethyl-6-(2-methylpyrimidin-5-yl)-2-oxoindolin-1-yl)-5,5-dimethyl-5H-pyrrolo[2,3-c]pyridazin-6(7H)-one] displayed an IC50 of 993 nM. Against the preceding compound, the IC50 is about 3.1-fold higher. Next, `Cc1ncc(-c2ccc3c(c2)N(c2cncc4[nH]ccc24)C(=O)C3(C)C)cn1` [Example 34, 3,3-Dimethyl-6-(2-methylpyrimidin-5-yl)-1-(1H-pyrrolo[2,3-c]pyridin-4-yl)indolin-2-one]: 838 nM; `Cc1ncc(-c2ccc3c(c2)N(c2cncc(N4[C@@H]5COC[C@H]4C5)n2)C(=O)C3(C)C)cn1` [Example 13, 1-(6-((1R,5S)-3-Oxa-6-azabicyclo[3.1.1]heptan-6-yl)pyrazin-2-yl)-3,3-dimethyl-6-(2-methylpyrimidin-5-yl)indolin-2-one]: 137 nM; `Cc1ncc(-c2ccc3c(c2)N(c2cncc(NC4CC4)n2)C(=O)C3(C)C)cn1` [Example 7, 1-(6-(Cyclopropylamino)pyrazin-2-yl)-3,3-dimethyl-6-(2-methylpyrimidin-5-yl)indolin-2-one]: 39.6 nM.
